Measurements taken from patent US20070238184A1, “Amyloid beta protein channel structure and uses thereof in identifying potential drug molecules for neurodegenerative diseases” (The Regents of the University of California, priority 2005, published 2007).
No end group written: not given here.

What was measured:
[1] = Single-channel current recording in planar phospholipid bilayer membranes; conditions: voltage clamp, peptide added to one side, pH 7.4
Protocol: Planar phospholipid bilayer membranes were formed as described by Mirzabekov et al. (1999) Meth. Enzymol. 294: 61-74. A bubble of lipid dissolved in heptane was placed at the end of a small (100-300 μm) Teflon tube. Silver/silver chloride electrodes connected the aqueous components bounding the membrane to a voltage clamp. Ion-channel currents through the membrane were recorded by an Axopatch amplifier (Axon Instruments, Sunnyvale, Calif.). Data were filtered at 1 kHz and stored on VHS tape. Membrane capacitance and resistance were monitored continuously to ensure the formation and stability of reproducible membranes and the proper membrane thickness. […] Peptide samples were introduced by perfusing the aqueous solution bounding one side of the membrane.

AbP ion channels [2] = experiment: AbP-induced toxicity in cultured cells; format: cell-based; conditions: blocking Ca2+ influx through AbP ion channels
[3] = target: T1, channels formed by the 40 residue AbP1-40 (Homo sapiens, UniProt P05067); experiment: 45Ca2+ uptake into liposomes reconstituted with AbP1-40 channels; format: biochemical
T1 construct: the channels formed by the 40 residue AbP1-40
T1 sequence (P05067 672-711 limits assumed): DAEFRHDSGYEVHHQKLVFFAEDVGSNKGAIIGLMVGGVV
Description: (§1) In certain embodiments binding of test agents can be detected by detecting alterations (e.g., decrease) of ion (e.g., Ca^2+) uptake by a cell, oocytes, or liposome in the presence of the test agent(s)-uptake in to the liposomes. This can readily be detected using for example a radio-isotope (e.g., 45Ca^2+) or a calcium sensitive dye (e.g., arsenazo III (AIII), Fura-2, Fluo-3, Fluo-4, Calcium green, etc.).
(§2) Using liposomes reconstituted with AbP channels in the membrane, one can screen for compounds that block AbP channels.

AbP ion channels [4] = experiment: Ca2+ influx through AbP ion channels incorporated into unilaminar liposomes; format: biochemical, human
Description: Consistent with these discoveries, we have shown that AbP ion channels mediate Ca^2+ influx when incorporated into unilaminar liposomes, and the Ca^2+ influx was blocked by Zn^2+ and an anti-AbP antibody.

[5] = target: T2, channels formed by the 42-residue AbP1-42 (Homo sapiens, UniProt P05067); experiment: Liposomes reconstituted with AbP1-42 channels, channel block; format: biochemical
T2 construct: the channels formed by the 42-residue AbP1-42
T2 sequence (P05067 672-713 limits assumed): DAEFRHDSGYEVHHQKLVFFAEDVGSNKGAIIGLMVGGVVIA
Description: as §1, §2

[6] = IV curve conductance across lipid bilayer suspended over silicon chip nanopore; conditions: 0.2 mg/ml, 135 mM KCl, bilayer only 0.025 nS
Protocol: In order to study the sealing effect of the bilayer over the nanopores in the chip, lipid vesicles were deposited over to chips. After 30 minutes for a bilayer to form from vesicular fusion, the excess unadsorbed lipids and vesicles were rinsed away from the surface. Bulk electrical conductance across the supported nanopore chip and the overlying adsorbed lipid bilayer was measured using a drop of 135 mM KCl solution on top of the chip in which the AFM tip holder assembly was submerged and 135 mM KCl under the nitride membrane. The IV curve measured was near flat and indicates a conductance across the bilayer of 0.025 nS. To check for the possibility of using the nanopore chip to measure ion channel conductance, Gramicidin (a known ion channel forming peptide) was added to the solution at a concentration of 0.2 mg/ml. The effect of Gramicidin on conductance is shown in FIG. 18, while applying a 1V bias to the bottom electrode under the silicon nitride membrane.
For all samples, nano pore membranes were mounted on plastic liquid cells to exchange fluid above or below the membrane. IV curves were obtained in 135 mM KCl solution. Current was measured using the conductive AFM setup with the cantilevered tip holder as an electrode on the top and a reference electrode under the pore-chip (FIG. 20). In absence of an insulating coat, when buffer was present on both sides of the chip, current is measured through the complete tip holder clip. To image current only through the AFM tip apex, conductance was measured with 135 mM KCl solution only under the pore chip and a flow of humid air was maintained over the top surface. This set up also ensured that, by allowing only a local water meniscus between tip and the sample, only the local conductance through each pore was measured.
AFM was also used to image pores after deposition of lipid vesicles (DOPC) prepared by previously described method (Lin et al. (1999) Biochemistry, 38: 11189-11196). Briefly, vesicles were formed by drying 1 mg of DOPC lipid in a glass tube, kept in a desiccator overnight, and rehydrated in buffer with occasional sonication. For vesicle deposition a droplet (50 micro liter, 1 mg/ml) of vesicles was placed on the pore chip, allowed to adsorb for 30 minutes, and rinsed with buffer. After bilayer deposition and before IV measurements, ionic strength was brought back to 135 mM KCl both on top as well as below the pore chip to keep the bilayer hydrated properly, and current was measured through the tip holder. Once a proper seal was achieved by the bilayer, Gramicidin, an ion channel forming peptide (dissolved in milliQ water with 135 mM KCl), was added to the buffer solution, and the current was measured as a function of time while gramicidin interacted with the bilayer.

islet amyloid polypeptide (KCNTATCATQRLANFLVHSSNNFGAILSSTNVGSNTY; not fully specified (C-terminus, bridges); cysteine pairing not given here; UniProt P10997 34-70, looked up) [Amylin, amyloid peptide synthesized by N-t-butyloxycarbonyl chemistry]
induction of single-channel ion currents / conductances [1]: Current jumps corresponding to the opening or closing of individual ion channels can be observed

NAC: NAC (α-synuclein 60-95)
induction of single-channel ion currents / conductances [1]: Current jumps corresponding to the opening or closing of individual ion channels can be observed

[Zn+2] [Zn^2+]
effect on AbP-induced toxicity (AbP ion channels [2]): inhibited AbP-induced toxicity | block of AbP1-40 channels and inhibition of 45Ca2+ uptake into the liposomes [3]: blocks the channels | block of Ca2+ influx mediated by AbP ion channels (AbP ion channels [4]): blocked | block of AbP1-42 channels [5]: blocked

amyloid-β(1-40) [Aβ(1-40)]
induction of single-channel ion currents / conductances [1]: Current jumps corresponding to the opening or closing of individual ion channels can be observed

NC(CO)(CO)CO [Tris]
block of AbP1-42 channels [5]: blocked

Gramicidin
conductance after addition of Gramicidin ([6]; 10 seconds after addition): 0.25 nS | conductance after addition of Gramicidin ([6]; 2 minutes after addition): 0.5 nS | conductance after addition of Gramicidin ([6]; 4 minutes after addition): 1 nS | conductance after addition of Gramicidin ([6]; 4 minutes after addition, listed as gramicidin): roughly 1 nS
